In assay [1] the target is T1, 5-HT1A serotonin receptor (Rattus norvegicus, UniProt P19327).
T1 sequence (P19327 1-422): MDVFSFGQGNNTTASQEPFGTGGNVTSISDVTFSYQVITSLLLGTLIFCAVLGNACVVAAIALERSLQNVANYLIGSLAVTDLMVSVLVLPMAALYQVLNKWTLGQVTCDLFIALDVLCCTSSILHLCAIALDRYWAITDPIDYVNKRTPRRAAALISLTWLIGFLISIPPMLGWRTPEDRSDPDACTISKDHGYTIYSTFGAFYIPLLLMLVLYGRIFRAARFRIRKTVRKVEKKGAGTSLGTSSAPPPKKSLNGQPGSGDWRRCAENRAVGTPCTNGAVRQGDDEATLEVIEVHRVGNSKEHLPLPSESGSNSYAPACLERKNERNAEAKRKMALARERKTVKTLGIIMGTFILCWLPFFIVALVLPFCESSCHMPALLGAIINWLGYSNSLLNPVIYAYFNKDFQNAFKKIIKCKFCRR
The experiment in a line: Serotonin 5-HT1A receptor binding (displacement of [3H]-8-OHDPAT). Set-up: from tissue. To be noted: [3H]-8-OHDPAT displacement. An excerpt: High affinity for the serotonin 5-HT1A receptor was established by testing the claimed compounds ability to displace [^3 H]-8-OHDPAT (dipropylaminotetralin) from the 5-HT1A serotonin receptor following the procedure of Hall et al., J. Neurochem. 44, 1685 (1985). […] The anxiolytic activity of buspirone is believed to be, at least partially, due to its 5-HT1A receptor affinity (Vander Maclen et al., Eur. J. Pharmacol. 1986, 129 (1-2), 133-130.
A general note: Loss of bound radioactivity is the signal in a displacement assay; it reports binding, not function.

The next assay concerns the target T2, dopamine D-2 receptor (Rattus norvegicus, UniProt P61169).
T2 construct: from tissue; host or cells: homogenized limbic brain tissue
Description: Dopamine D-2 receptor binding ([3H]-spiroperidol, homogenized limbic brain tissue). The protocol: High affinity for the dopamine D-2 receptor was established by the standard experimental test procedure of Fields et al., Brain Res., 136, 578 (1977) and Yamamura et al., eds. Neutrotransmitter Receptor Binding, Raven Press, N.Y. (1978) wherein homogenized limbic brain tissue is incubated with ^3 H-spiroperidol and various concentrations of test compound, filtered and washed and shaken with Hydrofluor scintillation cocktail (National Diagnostics) and counted in a Packard 460 CD scintillation counter.

For assay [2], the target named is T1, 5-HT1A serotonin receptor. To be noted: standard for anxiolytic activity; cited from earlier work.

T2 sequence (P61169 whole entry): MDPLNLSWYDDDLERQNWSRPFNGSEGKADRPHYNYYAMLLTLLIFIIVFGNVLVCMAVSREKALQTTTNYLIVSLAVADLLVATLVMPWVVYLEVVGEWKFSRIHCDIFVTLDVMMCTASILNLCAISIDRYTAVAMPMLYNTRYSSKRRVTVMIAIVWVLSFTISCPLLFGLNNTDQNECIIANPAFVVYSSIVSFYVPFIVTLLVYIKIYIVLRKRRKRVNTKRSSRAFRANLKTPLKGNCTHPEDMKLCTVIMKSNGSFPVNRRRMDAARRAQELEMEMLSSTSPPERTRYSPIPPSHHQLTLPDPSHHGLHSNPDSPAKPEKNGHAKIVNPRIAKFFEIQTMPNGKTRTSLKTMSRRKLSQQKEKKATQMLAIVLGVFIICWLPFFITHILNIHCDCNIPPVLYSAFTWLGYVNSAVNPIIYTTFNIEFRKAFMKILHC

For `c1cnc(N2CCN(CCCOc3ccc4c(c3)CCC4)CC2)nc1` [Example 1], the values for the inhibition at 1 µM (in assay [1]; on dopamine D-2 receptor) were 91% and 85%, respectively.
For `Fc1ccc(C(c2ccc(F)cc2)N2CCN(CCCOc3ccc4c(c3)CCC4)CC2)cc1` [Example 2, 1-[4-[3-[(2,3-Dihydro-1H-indan-5-yl)oxy]propyl]-1-piperazinyl]bis(4-fluorophenyl)methane], in assay [1], the inhibition (commonly the drop in the measured response relative to a control, in per cent) at 1 µM amounted to 43%.
Turning to `Clc1cncc(N2CCN(CCCOc3ccc4c(c3)CCC4)CC2)n1` [Example 3], the inhibition at 1 µM in assay [1] is 48%; on dopamine D-2 receptor, 82%.
In the case of `c1ccc2c(c1)OCC(CNCCCCOc1ccc3c(c1)CCC3)O2` (stereo not drawn) [Example 4, N-[4-[(2,3-Dihydro-1H-indan-5-yl)oxy]butyl]-2,3-dihydro-1,4-benzodioxan-2-methanamine], the results for the inhibition at 1 µM (in assay [1]; on dopamine D-2 receptor) were 92% and 97%, respectively.
For the molecule `c1ccc2c(c1)OCC(CNCCOc1ccc3c(c1)CCC3)O2` (stereo not drawn) [Example 5, N-[2-[(2,3-Dihydro-1H-indan-5-yl)oxy]ethyl]-2,3-dihydro-1,4-benzodioxan-2-methanamine], the inhibition at 1 µM amounted to 76% in assay [1] and 100% at dopamine D-2 receptor.
Regarding `c1ccc2c(c1)OCC(CNCCCOc1ccc3c(c1)CCC3)O2` (stereo not drawn) [Example 6, N-[3-[(2,3-Dihydro-1H-indan-5-yl)oxy]propyl]-2,3-dihydro-1,4-benzodioxan-2-methanamine], the results for the inhibition at 1 µM (in assay [1]; at dopamine D-2 receptor) were 99% and 95%, respectively.
As to `O=C1CC2(CCCC2)CC(=O)N1CCCCN1CCN(c2ncccn2)CC1` [buspirone], the “affinity for the 5-HT1A serotonin receptor subtype (in words)” value in assay [2] is recorded as “potent affinity”.

Values taken from US5036070A, “Polycyclic phenalkyl amines as psychotropic agents” (American Home Products Corporation, priority 1990, dated 1991).
